According to PMC13385394, “Cryo-EM Structure of the TRPC1/5 Heteromer Enables Design of Antidepressant and Anxiolytic Drug with Reduced Side Effects” (Nature Communications, 2026):

Key:
[1] = molecular target: T1, TRPC5 homomers (Homo sapiens, UniProt Q9UL62); assay: Whole-cell patch-clamp, inhibition of EA-activated TRPC5 homomers; assay type: cell-based
T1 construct: full length hTRPC5 (TRPC5 wild type (WT)); expressed in transfected cells; host or cells: HEK293T
T1 sequence (Q9UL62 1-973): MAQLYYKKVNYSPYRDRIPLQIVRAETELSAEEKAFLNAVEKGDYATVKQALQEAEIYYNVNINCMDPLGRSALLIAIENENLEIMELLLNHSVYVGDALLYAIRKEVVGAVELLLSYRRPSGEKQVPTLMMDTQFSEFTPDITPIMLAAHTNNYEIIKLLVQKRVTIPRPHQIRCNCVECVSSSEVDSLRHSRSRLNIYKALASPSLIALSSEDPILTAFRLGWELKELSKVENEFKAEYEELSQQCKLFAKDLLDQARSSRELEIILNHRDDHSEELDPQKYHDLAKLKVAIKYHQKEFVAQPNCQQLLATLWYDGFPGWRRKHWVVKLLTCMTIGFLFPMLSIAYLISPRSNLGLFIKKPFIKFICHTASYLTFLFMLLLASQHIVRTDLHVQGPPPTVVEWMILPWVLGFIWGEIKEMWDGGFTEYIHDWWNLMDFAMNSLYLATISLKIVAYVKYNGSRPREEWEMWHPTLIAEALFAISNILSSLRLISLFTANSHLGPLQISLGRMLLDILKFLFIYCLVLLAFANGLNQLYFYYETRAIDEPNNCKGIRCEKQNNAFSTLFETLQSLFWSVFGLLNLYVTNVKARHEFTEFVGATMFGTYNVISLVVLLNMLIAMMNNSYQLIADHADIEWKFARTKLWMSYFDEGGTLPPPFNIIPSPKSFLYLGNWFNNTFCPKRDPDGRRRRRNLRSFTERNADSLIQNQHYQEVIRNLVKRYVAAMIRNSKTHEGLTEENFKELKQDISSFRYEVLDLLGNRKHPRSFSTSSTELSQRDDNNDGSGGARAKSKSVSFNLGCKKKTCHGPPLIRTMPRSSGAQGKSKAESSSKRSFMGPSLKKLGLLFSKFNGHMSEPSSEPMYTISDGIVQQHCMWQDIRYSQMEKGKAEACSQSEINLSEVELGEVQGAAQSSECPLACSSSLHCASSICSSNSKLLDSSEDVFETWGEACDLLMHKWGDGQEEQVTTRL

[2] = molecular target: T2, TRPC6 homomer (Homo sapiens, UniProt Q9Y210); assay: Whole-cell patch-clamp, inhibition of TRPC6 homomer; assay type: cell-based
T2 construct: expressed in transfected cells
T2 sequence (Q9Y210 1-931): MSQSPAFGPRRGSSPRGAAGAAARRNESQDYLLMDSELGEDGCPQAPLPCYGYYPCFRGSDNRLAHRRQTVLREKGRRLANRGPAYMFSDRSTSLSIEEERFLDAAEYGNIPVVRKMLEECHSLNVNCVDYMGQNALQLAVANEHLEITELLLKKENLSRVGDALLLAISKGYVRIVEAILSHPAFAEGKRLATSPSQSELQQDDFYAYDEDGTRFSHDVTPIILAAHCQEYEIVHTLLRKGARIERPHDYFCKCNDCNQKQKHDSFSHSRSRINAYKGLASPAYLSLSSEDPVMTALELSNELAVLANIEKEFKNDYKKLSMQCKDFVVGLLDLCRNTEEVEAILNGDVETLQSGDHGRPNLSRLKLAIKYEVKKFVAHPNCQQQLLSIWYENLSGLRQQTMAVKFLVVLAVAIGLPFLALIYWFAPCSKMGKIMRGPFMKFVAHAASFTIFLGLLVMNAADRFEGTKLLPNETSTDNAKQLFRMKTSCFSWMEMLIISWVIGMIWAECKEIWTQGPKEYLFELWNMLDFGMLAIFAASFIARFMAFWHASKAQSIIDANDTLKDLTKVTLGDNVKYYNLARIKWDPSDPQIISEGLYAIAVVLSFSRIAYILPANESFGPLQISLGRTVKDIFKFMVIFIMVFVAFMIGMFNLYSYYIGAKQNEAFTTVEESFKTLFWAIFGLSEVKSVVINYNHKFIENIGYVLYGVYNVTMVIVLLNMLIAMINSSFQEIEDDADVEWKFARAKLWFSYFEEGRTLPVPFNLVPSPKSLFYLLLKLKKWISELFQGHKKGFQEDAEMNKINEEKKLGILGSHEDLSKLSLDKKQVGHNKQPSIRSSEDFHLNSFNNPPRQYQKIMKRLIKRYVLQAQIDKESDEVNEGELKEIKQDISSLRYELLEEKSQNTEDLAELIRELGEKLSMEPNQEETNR
Description: Error bars represent the standard error of the mean (SEM, n = 6 independent
Error bars represent the standard error of the
110 mean (SEM, n = 5 independent cells).

SMILES: CN(C)CCCCn1c(=O)c2c(nc(Oc3cccc(Cl)c3)n2Cc2ccc(Cl)cc2)n(C)c1=O [H08]
- concentration at which inhibition of TRPC5 homomers appears [1]: > 5 µM
- HillSlope, TRPC5 ([1]; whole-cell patch-clamp): 1.990
- IC50 ([1]; whole-cell patch-clamp): 8.5 µM
- HillSlope, TRPC5 ([1]; whole-cell patch-clamp, listed as JD03-02): > 1
- IC50 [2]: > 10 µM
- inhibition at 10 µM ([2]; 10 μM): 30 to 40%
- inhibition of TRPC6 ([2]; 10 μM): no more than 40%
